Measured values as given in patent publication US9498429B2, “Use of a vegetal extract for the prevention and treatment of hair loss” (GIULIANI S.P.A., priority 2013, dated 2016).

System: murine fibroblasts BALB3T3
Test: MTT with induced oxidative stress-BALB3T3
Format: cell-based
Conditions: 25 μM; oxidative stress induced with H2O2
Method: (§1) Non-treated cells in DMEM medium (Dulbecco's Modified Eagle's Medium, ATCC, Manassas, Va., USA) added to 2.5% fetal bovine serum (FCS), 1% non-essential amino acids (NEAA), a 1% penicillin and streptomycin mixture (Pen-Strep Mix), and maintained in 25 cm^2 (96 well) culture plates at 37° C. and under 5% CO2.
as §1, with “Cells treated for 2 hrs with 1 mM hydrogen peroxide” for “Non-treated cells”, “CO2 (in the dark). […]” for “CO2.”
Studies conducted in 2005 by Rajapakse and colleagues (2005) have highlighted the possibility of employing a widely used and versatile method such that of the MTT essay for studying the in vitro anti-oxidant activity of active compounds. […] The possible protecting effects may be determined by the assessment of the post-oxidative stress cell viability of cells pre-treated/pre-exposed to the active compounds to be tested, in comparison to cells subjected to the same oxidative stress. […]
The data were expressed as the percentage of cell viability as compared to the non-stressed control cells (ctr), according to the following formula: cell viability/ctr=(Abs sample/Abs ctr)*100 […]

## Cc1c(C)c2c(c(C)c1O)CC[C@@](C)(CCC[C@H](C)CCC[C@H](C)CCCC(C)C)O2 [α-tocopherol]
  Scavenger activity: 43.10
